From article PMC11221189, “Gut microbiota DPP4-like enzymes are increased in type-2 diabetes and contribute to incretin inactivation” (Genome Biology, 2024)
Values joined by “and” are separate entries in the source; they are usually repeats but may differ in a detail not shown here. Equal values may be shown once. “Also recorded” adds a separate entry of the source. Peptide text beside a SMILES is read from it. * marks the point of attachment. pNA = O=[N+]([O-])c1ccc(N*)cc1

Legend:
[1] = biological target: pmDPP4Δ23 (Parabacteroides merdae, UniProt A0AA37KD06); type: biochemical; conditions: for Effect on pmDPP4Δ23 hydrolytic activity (in words): gpPNA hydrolysis; for EC50 pmDPP4: gpPNA substrate, non-linear fit, sitagliptin and linagliptin data did not fit (R^2 ND)
[2] = test system: T1, pmDPP4Δ23 (headed pmDPP4 in Table 1 and Table S1); assay: Overall Km for gpPNA without inhibitor, from the colorimetric kinetics at pH 8.3 and 37 °C.; type: biochemical; conditions: read-out: overall estimated Km
T1 construct: N-terminal 6 x His tag; expressed from pET15b in E. coli BL21-DE3; dimer in solution
Description: (§1) The hydrolytic activity of the bacterial DPP4 enzyme was measured using Gly-Pro p-nitroanilide hydrochloride (gpPNA) (Sigma), as described for assessing hsDPP4 activity. […] Briefly, 20 µL of each cell-free supernatant was placed in triplicate in a flat 96-well plate. Two hundred microliters of the respective PNA solutions were plated in duplicate to obtain the standard curve. […] The enzymatic activity ([PNA generated (nM) / hydrolysis time (min)] / pmole enzyme) was quantified between 10 and 30 min of incubation time (linear kinetics). Three independent experiments with different purified protein batches were performed. The same protocol was followed for the murine samples (cecal content and plasma from the portal vein). In the case of the cecal content, the values of DPP4 activity were normalized by the amount of protein, quantified by the Bradford method (Bio-Rad, Hercules, CA).

[3] = test system: T1, pmDPP4Δ23 (headed pmDPP4 in Table 1 and Table S1); assay: Colorimetric steady-state kinetics of gpPNA hydrolysis (0.31 to 2.5 mM) without inhibitor, 50 mM Tris-HCl pH 8.3, 37 °C, 380 nm, Lineweaver-Burk analysis.; type: biochemical; conditions: SD, n = 3; read-out: Km (mM), inhibitor 0 nM
Description: as §1
Figure S3. Gliptin inhibition kinetics on pmDPP4Δ23. Lineweaver-Burk double-reciprocal (1/V and 1/S) plots showing pmDPP4Δ23 (bottom panels) and hsDPP4 (top panels) […]
(100 nM, burgundy lines) concentrations. The apparent Km was calculated respectively from inhibitor-associated data points using linear regression to find intersection point at the y-axis (1/S). V, reaction velocity (nmol PNA min-1 pmole enzyme-1); S, substrate concentration (mM gpPNA).
(1 picture or pasted object on this page, not shown here) […]

[4] = test system: depression-like behavior; conditions: obesogenic diet; cited from earlier work

Chain of pmDPP4Δ23 (A0AA37KD06 entry or part of it, stated change not applied): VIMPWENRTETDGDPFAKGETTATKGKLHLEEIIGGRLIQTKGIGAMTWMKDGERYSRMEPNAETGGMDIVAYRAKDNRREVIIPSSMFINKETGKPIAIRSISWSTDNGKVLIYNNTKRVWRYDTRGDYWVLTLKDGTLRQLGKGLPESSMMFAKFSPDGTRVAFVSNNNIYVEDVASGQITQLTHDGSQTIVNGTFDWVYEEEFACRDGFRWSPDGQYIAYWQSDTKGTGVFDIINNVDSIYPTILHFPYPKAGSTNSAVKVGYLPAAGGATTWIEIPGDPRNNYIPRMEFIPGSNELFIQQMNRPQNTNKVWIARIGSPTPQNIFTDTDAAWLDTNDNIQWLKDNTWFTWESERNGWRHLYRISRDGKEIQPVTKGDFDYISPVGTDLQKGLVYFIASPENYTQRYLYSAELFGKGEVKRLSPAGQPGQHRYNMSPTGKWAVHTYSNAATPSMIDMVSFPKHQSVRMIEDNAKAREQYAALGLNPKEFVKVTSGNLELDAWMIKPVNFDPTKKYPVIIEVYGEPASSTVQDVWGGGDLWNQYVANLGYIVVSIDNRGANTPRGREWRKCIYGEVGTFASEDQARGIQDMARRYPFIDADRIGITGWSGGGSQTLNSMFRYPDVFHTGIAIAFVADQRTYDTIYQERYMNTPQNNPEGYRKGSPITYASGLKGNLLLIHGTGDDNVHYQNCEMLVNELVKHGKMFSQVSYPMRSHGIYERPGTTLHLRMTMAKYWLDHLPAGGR

Row | SMILES | Effect on pmDPP4Δ23 hydrolytic activity (in words) [1] | EC50 pmDPP4 [1] | further results
1 | CC#CCn1c(N2CCC[C@@H](N)C2)nc2c1c(=O)n(Cc1nc(C)c3ccccc3n1)c(=O)n2C [Linagliptin, linagliptin] | not inhibited; also recorded: almost null effect; also recorded: minimally inhibited | – | –
2 | N#C[C@@H]1C[C@@H]2C[C@@H]2N1C(=O)[C@@H](N)C12CC3CC(CC(O)(C3)C1)C2 [Saxagliptin, saxagliptin] | – | nanomolar range | –
3 | NCC(=O)N1CCC[C@H]1C(=O)Nc1ccc([N+](=O)[O-])cc1 [gpPNA, Gly-Pro p-nitroanilide] (H-Gly-Pro-pNA) | – | – | Km [2]: 1630 µM; Km [3]: 1.6 mM and 1.79 mM and 1.66 mM and 1.46 mM
4 | N#C[C@@H]1CCCN1C(=O)CNC12CC3CC(CC(O)(C3)C1)C2 [Vildagliptin, vildagliptin] | – | nanomolar range | –
5 | N[C@@H](CC(=O)N1CCn2c(nnc2C(F)(F)F)C1)Cc1cc(F)c(F)cc1F [Sitagliptin, sitagliptin] | not inhibited; also recorded: almost null effect; also recorded: minimally inhibited | – | Depression-like behavior associated with increased systemic DPP4 activity [4]: counteracted
